EP4151631A1, “HETEROCYCLIC COMPOUNDS FOR THE CONTROL OF INVERTEBRATE PESTS” (BASF SE, priority 2021, dated 2023)

What was measured:
Plutella xylostella = test: Diamond back moth leaf-dip test on cabbage leaves; type: in vivo; details: 3rd instar larvae on dipped cabbage leaves, 72 hours after treatment, read-out: mortality in comparison with untreated controls
Experimental: The active compound was dissolved at the desired concentration in a mixture of 1:1 (vol:vol) distilled water: acetone. Surfactant (Kinetic HV) was added at a rate of 0.01% (vol/vol). The test solution was prepared on the day of use.
Leaves of cabbage were dipped in test solution and air-dried. Treated leaves were placed in petri dishes lined with moist filter paper and inoculated with ten 3rd instar larvae. Mortality was recorded 72 hours after treatment. Feeding damages were also recorded using a scale of 0-100%.

Spodoptera eridania = test: Southern armyworm foliar spray test on lima bean plants; type: in vivo; details: 96 h, 2nd instar larvae on sprayed lima bean plants, 4 days after treatment, read-out: mortality in comparison with untreated controls
Experimental: The active compounds were formulated by a Tecan liquid handler in 100% cyclohexanone as a 10,000 ppm solution supplied in tubes. The 10,000 ppm solution was serially diluted in 100% cyclohexanone to make interim solutions. These served as stock solutions for which final dilutions were made by the Tecan in 50% acetone:50% water (v/v) into 10 or 20ml glass vials. A nonionic surfactant (Kinetic®) was included in the solution at a volume of 0.01% (v/v). The vials were then inserted into an automated electrostatic sprayer equipped with an atomizing nozzle for application to plants/insects. Lima bean plants (variety Sieva) were grown 2 plants to a pot and selected for treatment at the 1st true leaf stage. Test solutions were sprayed onto the foliage by an automated electrostatic plant sprayer equipped with an atomizing spray nozzle. The plants were dried in the sprayer fume hood and then removed from the sprayer. Each pot was placed into perforated plastic bags with a zip closure. Ten to 11 armyworm larvae were placed into the bag and the bags zipped closed. Test plants were maintained in a growth room at about 25°C and about 20-40% relative humidity for 4 days, avoiding direct exposure to fluorescent light (14:10 light:dark photoperiod) to prevent trapping of heat inside the bags. Mortality and reduced feeding were assessed 4 days after treatment, compared to untreated control plants.

| Compound | mortality at 300 ppm (Plutella xylostella) [%] | mortality at 300 ppm (Spodoptera eridania) [%] |
| --- | --- | --- |
| CC(NC(=O)c1cc(Br)cc(C(F)(F)F)c1)c1nccnc1-n1ncn(CC(F)(F)F)c1=O (stereo not shown) [I-2, 3-bromo-N-[1-[3-[5-oxo-4-(2,2,2-trifluoroethyl)-1,2,4-triazol-1-yl]pyrazin-2-yl]ethyl]-5-(trifluoromethyl)benzamide] | ≥ 75 | ≥ 75 |
| CC(NC(=O)c1cc(Br)cc(C(F)(F)F)c1)c1nccnc1-n1ncn(C)c1=O (stereo not shown) [I-1, 3-bromo-N-[1-[3-(4-methyl-5-oxo-1,2,4-triazol-1-yl)pyrazin-2-yl]ethyl]-5-(trifluoromethyl)benzamide] | ≥ 75 | ≥ 75 |
